Experimental findings from patent publication US20250353873A1, “COMPOUNDS AND METHODS FOR MODULATING APOE EXPRESSION” (Ionis Pharmaceuticals, Inc., priority 2024, published 2025) are described below.

Strand notation (5' to 3'): a small letter for the sugar, then the base; units joined by * are phosphorothioate-linked, units joined directly phosphodiester-linked; [ ] holds rarer units or linkages, { } end groups; capitals alone tell only the bases. [ms] = mesyl phosphoramidate linkage; e = 2'-O-(2-methoxyethyl) (MOE); k = constrained ethyl (cEt); [5mC] = 5-methylcytosine; d = 2'-deoxy (DNA)

Series [1] deals with human APOE RNA. The series can be described thus: Dose-dependent reduction of human APOE RNA in HepG2 cells, electroporation, 20,000 cells per well, normalized to PPIA (Example 4, Table 11). Format: cell-based. To be noted: HepG2 cells, 20,000 cells per well, approximately 24 hours; for APOE RNA (% UTC) 5 nM / APOE RNA (% UTC) 13 nM / APOE RNA (% UTC) 33 nM / APOE RNA (% UTC) 82 nM / APOE RNA (% UTC) 205 nM / APOE RNA (% UTC) 512 nM / IC50: PPIA-normalized; for APOE RNA (% UTC) 1,280 nM: PPIA-normalized, 1,280 nM; for APOE RNA (% UTC) 3,200 nM: PPIA-normalized, 3,200 nM; for APOE RNA (% UTC) 8,000 nM: PPIA-normalized, 8,000 nM; for APOE RNA (% UTC) 20,000 nM: PPIA-normalized, 20,000 nM; for IC50: reduction of human APOE RNA. As to the method: HepG2 cells plated at a density of 20,000 cells per well were treated by electroporation with various concentrations of modified oligonucleotide as specified in the tables below. […] APOE RNA levels were measured using the human primer probe set RTS3073 (described herein above). APOE RNA levels were normalized to human PPIA. Human PPIA was amplified using human primer probe set mk_cycloA_2nd (forward sequence […], designated herein as SEQ ID NO: 13; reverse sequence […], designated herein as SEQ ID NO: 14; probe sequence […], designated herein as SEQ ID NO: 15). Normalized results are presented in the table below as percent APOE RNA, relative to the amount of APOE RNA in untreated control cells (% UTC). The half maximal inhibitory concentration (IC50) of each modified oligonucleotide was calculated in GraphPad Prism 10 (GraphPad Software, San Diego, CA) and is also presented in the table below.

For series [2], the system named is human APOE RNA. The experiment in a line: Duration of action study in APOE C57BL/6NTac-Apoeem7250 knock-in mice (Example 16). Format: in vivo. To be noted: 300 μg ICV. In a few lines:
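Knock-in mice (2-4 per group) received a single ICV bolus of 300 μg oligonucleotide or PBS. At various timepoints, cortex and spinal cord human APOE RNA was measured by RT-qPCR (RTS3073), normalized to mouse Ppia and expressed as % of PBS control.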

Usually IC50 stands for the concentration that gives 50% inhibition. Turning to “TezTeoGeoGksTdsGdzAdzAdzTds^mCdsTdsTdsTdsAdzTksTksAesAesAes^mCe (antisense eT[ms]eTeGkG*dT*dG[ms]dA[ms]dA[ms]dT*d[5mC]*dT*dT*dT*dA[ms]kT*kT*eA*eA*eA*e[5mC]) [Compound No. 1809814]”, in the series on human APOE RNA [1], the “APOE RNA (% UTC) 5 nM” value amounted to 102 % UTC, the “APOE RNA (% UTC) 13 nM” value turned out to be 95 % UTC, the “APOE RNA (% UTC) 33 nM” value was 95 % UTC and the “APOE RNA (% UTC) 82 nM” value is 88 % UTC. For the same substance, in the series with human APOE RNA [1], the “APOE RNA (% UTC) 205 nM” value is given as 71 % UTC, the “APOE RNA (% UTC) 512 nM” value came out at 49 % UTC, the “APOE RNA (% UTC) 1,280 nM” value turned out to be 19 % UTC and the “APOE RNA (% UTC) 3,200 nM” value is 31 % UTC. In addition, in the series with human APOE RNA [1], the “APOE RNA (% UTC) 8,000 nM” value came to 8 % UTC, the “APOE RNA (% UTC) 20,000 nM” value is 13 % UTC and the IC50 stood at 540 nM. Moreover, in the series with human APOE RNA [2] (7 days post-dose), the “APOE RNA (% control) Cortex” value turned out to be 62 % control and the “APOE RNA (% control) Spinal Cord” value worked out at 84 % control. Besides, in the series with human APOE RNA [2] (14 days post-dose), the “APOE RNA (% control) Cortex” value is 57 % control and the “APOE RNA (% control) Spinal Cord” value is on record as 53 % control.

As to “Aks^mCeoTeoTesGesGksTdsGdzAdzAdzTds^mCdsTdsTdsTdsAdzTksTksAesAe (kA*e[5mC]eTeT*eG*kG*dT*dG[ms]dA[ms]dA[ms]dT*d[5mC]*dT*dT*dT*dA[ms]kT*kT*eA*eA) [Compound No. 1809635]”, in the series on human APOE RNA [1], the “APOE RNA (% UTC) 5 nM” value amounted to 105 % UTC, the “APOE RNA (% UTC) 13 nM” value is listed as 87 % UTC, the “APOE RNA (% UTC) 33 nM” value is 78 % UTC and the “APOE RNA (% UTC) 82 nM” value worked out at 66 % UTC. In the series on human APOE RNA [1], the “APOE RNA (% UTC) 205 nM” value worked out at 55 % UTC, the “APOE RNA (% UTC) 512 nM” value was found to be 31 % UTC, the “APOE RNA (% UTC) 1,280 nM” value came out at 18 % UTC and the “APOE RNA (% UTC) 3,200 nM” value is listed as 16 % UTC. Besides, in the series on human APOE RNA [1], the “APOE RNA (% UTC) 8,000 nM” value is on record as 4 % UTC, the “APOE RNA (% UTC) 20,000 nM” value is 2 % UTC and half-maximal inhibition (IC50) was put at 210 nM. In the series with human APOE RNA [2] (7 days post-dose), the “APOE RNA (% control) Cortex” value is recorded as 40 % control and the “APOE RNA (% control) Spinal Cord” value is recorded as 44 % control. In the series on human APOE RNA [2] (14 days post-dose), the “APOE RNA (% control) Cortex” value is given as 30 % control and the “APOE RNA (% control) Spinal Cord” value turned out to be 27 % control.
